In BindingDB's records for doi:10.7270/Q2TH8K43 (Burnham Center For Chemical Genomics, 2010):

Each compound was assayed against Nucleotide-binding oligomerization domain-containing protein 2 (Homo sapiens, UniProt Q9HC29) (assay: PubChem AID 2334).
Chain of Nucleotide-binding oligomerization domain-containing protein 2 (Q9HC29 whole entry, the tested form may be a part): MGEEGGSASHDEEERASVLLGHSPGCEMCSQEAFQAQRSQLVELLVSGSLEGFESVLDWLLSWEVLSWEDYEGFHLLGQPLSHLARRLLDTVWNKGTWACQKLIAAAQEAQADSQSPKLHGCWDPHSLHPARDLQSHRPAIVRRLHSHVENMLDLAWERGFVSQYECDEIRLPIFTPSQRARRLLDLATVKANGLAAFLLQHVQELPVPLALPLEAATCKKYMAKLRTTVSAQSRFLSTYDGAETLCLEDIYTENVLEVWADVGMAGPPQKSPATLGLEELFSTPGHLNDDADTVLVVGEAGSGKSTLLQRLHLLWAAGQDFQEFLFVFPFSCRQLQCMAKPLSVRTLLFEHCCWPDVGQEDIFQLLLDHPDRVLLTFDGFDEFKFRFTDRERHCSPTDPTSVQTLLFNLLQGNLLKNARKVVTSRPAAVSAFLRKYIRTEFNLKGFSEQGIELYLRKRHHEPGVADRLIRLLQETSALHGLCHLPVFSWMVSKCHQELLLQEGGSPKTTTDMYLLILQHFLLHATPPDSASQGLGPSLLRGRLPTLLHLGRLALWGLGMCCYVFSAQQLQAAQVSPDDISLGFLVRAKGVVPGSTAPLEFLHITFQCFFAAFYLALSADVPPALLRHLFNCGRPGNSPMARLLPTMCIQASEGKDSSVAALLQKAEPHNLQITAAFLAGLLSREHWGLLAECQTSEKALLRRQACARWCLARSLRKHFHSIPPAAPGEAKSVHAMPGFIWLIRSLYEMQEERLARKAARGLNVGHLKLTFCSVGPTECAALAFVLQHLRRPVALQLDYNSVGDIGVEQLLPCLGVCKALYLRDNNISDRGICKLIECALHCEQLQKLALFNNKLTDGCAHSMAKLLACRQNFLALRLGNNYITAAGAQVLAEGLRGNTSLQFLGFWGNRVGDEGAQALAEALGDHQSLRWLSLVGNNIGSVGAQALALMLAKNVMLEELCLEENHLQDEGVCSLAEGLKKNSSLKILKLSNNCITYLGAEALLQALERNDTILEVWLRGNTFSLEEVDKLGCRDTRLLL

Row | Compound | IC50 [µM]
1 | Cc1cc(SCC(=O)OCC(=O)C(C#N)c2nc3ccccc3[nH]2)c(C)cc1Br (stereo unspecified) | > 20
2 | Cc1cc(Br)ccc1SCC(=O)OCC(=O)C(C#N)c1nc2ccccc2[nH]1 (stereo unspecified) [2-[(4-bromo-2-methylphenyl)thio]acetic acid [3-cyano-3-(1,3-dihydrobenzimidazol-2-ylidene)-2-oxopropyl] ester] | > 20
3 | Cc1ccc(O)c(/N=C/C2=CC(Cc3ccccc3)C=C([N+](=O)[O-])C2=O)c1 (stereo unspecified) [(6E)-6-[[(5-methyl-2-oxidanyl-phenyl)amino]methylidene]-2-nitro-4-(phenylmethyl)cyclohexa-2,4-dien-1-one] | > 20
4 | Cc1ccc(C)c(SCC(=O)OCC(=O)C(C#N)c2nc3ccccc3[nH]2)c1 (stereo unspecified) [MLS000392255] | > 20
5 | N#CC(C(=O)COC(=O)CSc1ccc(Cl)cc1)c1nc2ccccc2[nH]1 (stereo unspecified) [MLS-0208254.0001] | > 20
6 | N#CC(C(=O)COC(=O)CSc1ccc2ccccc2c1)c1nc2ccccc2[nH]1 (stereo unspecified) [[3-cyano-3-(1,3-dihydrobenzimidazol-2-ylidene)-2-oxopropyl] 2-naphthalen-2-ylsulfanylacetate] | > 20
